Source: patent publication USRE37793E1, “Method and composition for inhibiting bacteria” (Winthrop University Hospital, priority 1995, dated 2002)

Assays:
[1] = tested on: gut flora; assay: Effect on gut flora and fecal production; set-up: species or system rats; conditions: rat, in vivo
[2] = tested on: Klebsiella pneumoniae; assay type: cell-based
[3] = tested on: bacteria; assay type: cell-based
[4] = tested on: bacteria; assay: Effect of cations (iron, copper) in culture medium on antibacterial activity; assay type: cell-based; conditions: iron added to culture medium
Protocol: Oxygen tension effects were determined by agar diffusion in aerobic, microaerophilic (Candle jar), and anaerobic (GasPak) conditions. […] Other amounts and ratios were tested. Culture condition effects, such as pH or temperature were evaluated in broth mediums.
Therefore, these antagonists could be used to neutralize BisBAL when necessary.

[5] = tested on: Helicobacter pylori; assay type: cell-based
[6] = tested on: E. coli and Salmonella; conditions: lag time and 18 hour turbidity only marginally affected
[7] = tested on: vancomycin-resistant enterococci (VRE); assay type: cell-based
[8] = tested on: methicillin-resistant S. aureus (MRSA); assay: Agar diffusion, zones of inhibition; assay type: cell-based, Staphylococcus aureus; conditions: MRSA (27 isolates); discs Bi(No3)3 157 μg, BAL 186 μg, BisBAL 157/31 μg; 24 h, 37° C.
[9] = tested on: V.cholerae, S.flexneri, and Y.enterocolitica

Molecule: O=C([O-])c1ccccc1[O-].[Bi+3].[OH-] [BSS]
- Effect on gut flora [1]: does not have a significant growth-inhibiting effect

Molecule: [H]/N=C(\N/C(=N/[H])NCCCCCCNC(=N)NC(=N)Nc1ccc(Cl)cc1)Nc1ccc(Cl)cc1 [CHX, chlorhexidine]
- Effect on CPS expression ([2]; even at 0.75 of the MIC): no significant effect

Molecule: O=S(=O)(O)CC(S)CS (stereo not drawn) [DMPS, 2,3-dimercaptopropane-1-sulfonic acid]
- Effect of thiol-containing chelator on antibacterial properties of bismuth [3]: do not increase its antibacterial properties

Molecule: O=C(O)[C@@H](S)[C@@H](S)C(=O)O [DMSA, dimercapto-succinic acid]
- Effect of thiol-containing chelator on antibacterial properties of bismuth [3]: do not increase its antibacterial properties

Molecule: N[C@@H](CS)C(=O)O [cysteine]
- Effect of thiol-containing chelator on antibacterial properties of bismuth [3]: do not increase its antibacterial properties

Molecule: bismuth nitrate [Bi(NO3)3]
- Reversal of antibacterial effects by iron [4]: can be reversed by addition of micromolar amounts of iron
- Concentration at which capsule and slime expression is inhibited ([2]; subinhibitory levels): greater than 500 μM
- Zone diameter of inhibition [5]: little or no zones of inhibition
- Bi^3+ concentration in whose presence bacteria grew well [6]: 250 to 500 µM
- Zones of Inhibition [7]: 7.3 ± 1.4 mm
- Zones of Inhibition [8]: 7.3 ± 2.8 mm
- Bi^3+ concentration bacteria could withstand [9]: up to 50 μM
